# Experimental data from article PMC6757289, “Design and Characterization of SGK3-PROTAC1, an Isoform Specific SGK3 Kinase PROTAC Degrader” (ACS Chemical Biology, 2019).
# Read-outs that look alike come from different tables or passages of the source.
# Columns and labels:
# Assay in all cases: kinase profiling panel
# Format in all cases: biochemical
# MAPKAP-K2 = MAPKAP-K2 (Homo sapiens, UniProt P49137); settings: read-out: % Activity Remaining
# Description: (§1) Protein kinase profiling against a Dundee panel of 140 protein kinases was undertaken at the International Centre for Protein Kinase Profiling. The result for each kinase was presented as a mean kinase activity of the reaction taken in triplicate relative to a control sample treated with DMSO. Assay conditions and abbreviations are available at http://www.kinase-screen.mrc.ac.uk.
# PIM3 = PIM3 (Homo sapiens, UniProt Q86V86); settings: read-out: % Activity Remaining
# Description: as §1
# SIK3 = SIK3 (Homo sapiens, UniProt Q9Y2K2); settings: read-out: % Activity Remaining
# Description: as §1
# TTBK2 = TTBK2 (Homo sapiens, UniProt Q6IQ55); settings: read-out: % Activity Remaining
# Description: as §1
# BRSK1 = molecular target: T1, BRSK1 (Homo sapiens, UniProt Q8TDC3); settings: read-out: % Activity Remaining
# T1 sequence (Q8TDC3 1-778): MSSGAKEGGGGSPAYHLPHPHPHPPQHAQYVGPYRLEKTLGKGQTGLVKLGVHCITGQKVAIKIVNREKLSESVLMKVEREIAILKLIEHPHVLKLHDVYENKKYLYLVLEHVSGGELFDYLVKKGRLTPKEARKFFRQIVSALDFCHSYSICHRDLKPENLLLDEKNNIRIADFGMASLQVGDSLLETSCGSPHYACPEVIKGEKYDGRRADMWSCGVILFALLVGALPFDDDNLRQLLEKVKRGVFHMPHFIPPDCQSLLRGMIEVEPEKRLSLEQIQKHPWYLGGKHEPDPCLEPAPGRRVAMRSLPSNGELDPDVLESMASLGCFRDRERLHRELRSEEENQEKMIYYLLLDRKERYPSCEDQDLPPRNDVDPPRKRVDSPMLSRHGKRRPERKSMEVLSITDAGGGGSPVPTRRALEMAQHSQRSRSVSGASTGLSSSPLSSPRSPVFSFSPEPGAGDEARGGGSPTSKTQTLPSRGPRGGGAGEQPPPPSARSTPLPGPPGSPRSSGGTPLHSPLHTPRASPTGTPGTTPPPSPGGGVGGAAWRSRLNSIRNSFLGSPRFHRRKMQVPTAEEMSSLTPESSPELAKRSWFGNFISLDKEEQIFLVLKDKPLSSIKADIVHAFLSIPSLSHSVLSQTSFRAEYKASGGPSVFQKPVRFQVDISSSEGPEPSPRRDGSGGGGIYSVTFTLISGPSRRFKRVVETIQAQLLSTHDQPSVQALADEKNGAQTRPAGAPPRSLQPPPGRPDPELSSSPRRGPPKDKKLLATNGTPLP
# Description: as §1
# NEK6 = NEK6 (Homo sapiens, UniProt Q9HC98); settings: read-out: % Activity Remaining
# Description: as §1
# PHK = settings: 1 µM
# Description: as §1
# PLK1 = PLK1 (Homo sapiens, UniProt P53350); settings: read-out: % Activity Remaining
# Description: as §1
# MARK2 = MARK2 (Homo sapiens, UniProt Q7KZI7); settings: read-out: % Activity Remaining
# Description: as §1
# LKB1 = molecular target: T2, LKB1 (Homo sapiens, UniProt Q15831); settings: read-out: % Activity Remaining
# T2 sequence (Q15831 1-433): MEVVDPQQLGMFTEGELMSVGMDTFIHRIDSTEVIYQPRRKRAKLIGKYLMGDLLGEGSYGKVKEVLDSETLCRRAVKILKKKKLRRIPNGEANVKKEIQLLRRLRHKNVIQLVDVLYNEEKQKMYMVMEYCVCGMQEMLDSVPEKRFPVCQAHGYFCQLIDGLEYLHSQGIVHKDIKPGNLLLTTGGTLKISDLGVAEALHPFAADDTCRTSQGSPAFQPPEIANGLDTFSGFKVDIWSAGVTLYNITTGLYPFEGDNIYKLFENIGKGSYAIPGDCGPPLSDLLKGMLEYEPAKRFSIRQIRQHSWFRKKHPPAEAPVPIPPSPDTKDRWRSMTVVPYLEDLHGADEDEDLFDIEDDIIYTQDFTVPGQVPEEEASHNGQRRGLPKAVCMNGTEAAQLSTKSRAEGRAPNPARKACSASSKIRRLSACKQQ
# T2 sequence (Q7RTN6 1-431 partner): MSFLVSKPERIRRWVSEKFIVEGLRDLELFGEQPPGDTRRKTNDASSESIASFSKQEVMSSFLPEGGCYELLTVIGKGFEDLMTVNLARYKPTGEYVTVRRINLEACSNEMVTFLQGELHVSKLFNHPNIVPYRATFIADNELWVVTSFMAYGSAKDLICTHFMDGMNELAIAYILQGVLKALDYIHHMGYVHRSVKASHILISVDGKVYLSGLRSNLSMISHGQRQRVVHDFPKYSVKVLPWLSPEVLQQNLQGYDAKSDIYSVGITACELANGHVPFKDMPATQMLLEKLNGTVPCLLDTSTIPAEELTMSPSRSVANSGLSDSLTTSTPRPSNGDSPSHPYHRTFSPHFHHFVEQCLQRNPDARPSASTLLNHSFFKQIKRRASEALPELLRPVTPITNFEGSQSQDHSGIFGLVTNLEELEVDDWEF
# T2 sequence (Q9Y376 1-341 partner): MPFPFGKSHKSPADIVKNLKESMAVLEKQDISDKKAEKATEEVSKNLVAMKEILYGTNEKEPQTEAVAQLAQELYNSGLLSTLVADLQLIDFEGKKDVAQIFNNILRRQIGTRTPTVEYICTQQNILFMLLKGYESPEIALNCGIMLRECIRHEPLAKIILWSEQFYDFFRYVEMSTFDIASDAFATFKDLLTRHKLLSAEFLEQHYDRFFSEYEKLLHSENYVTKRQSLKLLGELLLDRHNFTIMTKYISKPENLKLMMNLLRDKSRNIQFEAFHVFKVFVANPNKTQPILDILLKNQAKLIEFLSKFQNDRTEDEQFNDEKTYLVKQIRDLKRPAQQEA
# Description: as §1
# p38 delta MAPK = molecular target: T3, p38 delta MAPK (Homo sapiens, UniProt O15264); settings: read-out: % Activity Remaining
# T3 sequence (O15264 1-365): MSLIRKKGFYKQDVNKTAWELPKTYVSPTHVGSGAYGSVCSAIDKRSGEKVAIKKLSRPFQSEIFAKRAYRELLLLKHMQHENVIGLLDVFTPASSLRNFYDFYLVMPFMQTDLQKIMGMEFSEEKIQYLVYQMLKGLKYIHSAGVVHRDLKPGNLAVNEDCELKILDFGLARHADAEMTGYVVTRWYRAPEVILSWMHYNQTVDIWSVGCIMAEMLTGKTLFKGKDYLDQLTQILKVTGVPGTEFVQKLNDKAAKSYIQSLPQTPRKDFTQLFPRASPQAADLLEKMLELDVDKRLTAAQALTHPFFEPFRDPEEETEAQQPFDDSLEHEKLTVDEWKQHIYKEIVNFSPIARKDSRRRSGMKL
# Description: as §1
# Sequence of NEK6 (Q9HC98 whole entry): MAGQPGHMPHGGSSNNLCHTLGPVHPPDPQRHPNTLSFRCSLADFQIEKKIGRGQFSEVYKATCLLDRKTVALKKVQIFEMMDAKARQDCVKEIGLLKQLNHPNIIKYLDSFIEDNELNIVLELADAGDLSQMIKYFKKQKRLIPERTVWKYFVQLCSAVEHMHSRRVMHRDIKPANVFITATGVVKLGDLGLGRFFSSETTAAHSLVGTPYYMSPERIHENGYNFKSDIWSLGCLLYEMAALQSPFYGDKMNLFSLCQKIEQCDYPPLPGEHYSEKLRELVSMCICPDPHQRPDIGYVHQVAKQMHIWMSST
# Sequence of MAPKAP-K2 (P49137 whole entry): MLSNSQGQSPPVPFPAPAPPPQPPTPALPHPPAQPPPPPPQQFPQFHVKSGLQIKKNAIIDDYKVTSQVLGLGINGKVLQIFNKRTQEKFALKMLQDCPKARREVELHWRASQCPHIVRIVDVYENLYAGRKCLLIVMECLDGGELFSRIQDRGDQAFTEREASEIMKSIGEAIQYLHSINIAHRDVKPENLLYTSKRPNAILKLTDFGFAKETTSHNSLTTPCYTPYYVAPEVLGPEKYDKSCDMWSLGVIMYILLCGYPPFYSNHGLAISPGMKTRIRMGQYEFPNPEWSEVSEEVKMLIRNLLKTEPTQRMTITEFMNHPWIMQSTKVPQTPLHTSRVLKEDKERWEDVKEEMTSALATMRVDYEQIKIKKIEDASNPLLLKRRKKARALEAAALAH
# Sequence of TTBK2 (Q6IQ55 whole entry): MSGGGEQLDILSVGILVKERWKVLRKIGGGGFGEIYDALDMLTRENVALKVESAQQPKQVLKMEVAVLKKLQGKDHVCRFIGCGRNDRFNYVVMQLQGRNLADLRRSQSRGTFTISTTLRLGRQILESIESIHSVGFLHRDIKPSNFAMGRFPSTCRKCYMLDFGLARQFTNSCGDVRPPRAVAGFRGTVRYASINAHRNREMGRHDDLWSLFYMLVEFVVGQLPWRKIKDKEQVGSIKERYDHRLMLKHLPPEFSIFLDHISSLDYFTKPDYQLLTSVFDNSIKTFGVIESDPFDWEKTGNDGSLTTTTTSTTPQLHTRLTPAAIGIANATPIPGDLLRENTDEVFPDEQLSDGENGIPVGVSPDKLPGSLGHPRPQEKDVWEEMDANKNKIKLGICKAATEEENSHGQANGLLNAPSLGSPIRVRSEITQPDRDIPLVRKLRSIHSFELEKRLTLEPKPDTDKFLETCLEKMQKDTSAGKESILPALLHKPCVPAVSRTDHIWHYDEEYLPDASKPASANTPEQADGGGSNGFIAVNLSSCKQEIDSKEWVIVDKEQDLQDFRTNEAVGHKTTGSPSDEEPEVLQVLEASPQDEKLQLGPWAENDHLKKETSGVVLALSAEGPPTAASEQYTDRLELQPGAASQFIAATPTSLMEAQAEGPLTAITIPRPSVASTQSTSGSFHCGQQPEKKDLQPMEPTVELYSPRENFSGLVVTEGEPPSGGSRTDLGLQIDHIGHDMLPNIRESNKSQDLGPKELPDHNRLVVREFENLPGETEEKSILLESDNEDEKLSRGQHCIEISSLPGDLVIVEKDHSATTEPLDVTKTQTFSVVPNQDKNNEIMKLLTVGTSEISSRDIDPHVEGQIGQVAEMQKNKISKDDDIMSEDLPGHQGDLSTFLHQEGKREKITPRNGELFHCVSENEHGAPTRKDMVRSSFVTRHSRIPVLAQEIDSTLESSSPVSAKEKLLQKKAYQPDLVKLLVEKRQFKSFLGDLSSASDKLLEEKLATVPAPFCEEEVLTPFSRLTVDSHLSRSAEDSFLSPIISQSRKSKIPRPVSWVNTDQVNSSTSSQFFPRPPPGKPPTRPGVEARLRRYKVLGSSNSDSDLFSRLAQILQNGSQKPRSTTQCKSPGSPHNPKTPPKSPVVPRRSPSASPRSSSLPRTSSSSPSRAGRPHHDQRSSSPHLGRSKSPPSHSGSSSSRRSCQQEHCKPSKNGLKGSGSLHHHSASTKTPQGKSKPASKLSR
# Sequence of MARK2 (Q7KZI7 whole entry): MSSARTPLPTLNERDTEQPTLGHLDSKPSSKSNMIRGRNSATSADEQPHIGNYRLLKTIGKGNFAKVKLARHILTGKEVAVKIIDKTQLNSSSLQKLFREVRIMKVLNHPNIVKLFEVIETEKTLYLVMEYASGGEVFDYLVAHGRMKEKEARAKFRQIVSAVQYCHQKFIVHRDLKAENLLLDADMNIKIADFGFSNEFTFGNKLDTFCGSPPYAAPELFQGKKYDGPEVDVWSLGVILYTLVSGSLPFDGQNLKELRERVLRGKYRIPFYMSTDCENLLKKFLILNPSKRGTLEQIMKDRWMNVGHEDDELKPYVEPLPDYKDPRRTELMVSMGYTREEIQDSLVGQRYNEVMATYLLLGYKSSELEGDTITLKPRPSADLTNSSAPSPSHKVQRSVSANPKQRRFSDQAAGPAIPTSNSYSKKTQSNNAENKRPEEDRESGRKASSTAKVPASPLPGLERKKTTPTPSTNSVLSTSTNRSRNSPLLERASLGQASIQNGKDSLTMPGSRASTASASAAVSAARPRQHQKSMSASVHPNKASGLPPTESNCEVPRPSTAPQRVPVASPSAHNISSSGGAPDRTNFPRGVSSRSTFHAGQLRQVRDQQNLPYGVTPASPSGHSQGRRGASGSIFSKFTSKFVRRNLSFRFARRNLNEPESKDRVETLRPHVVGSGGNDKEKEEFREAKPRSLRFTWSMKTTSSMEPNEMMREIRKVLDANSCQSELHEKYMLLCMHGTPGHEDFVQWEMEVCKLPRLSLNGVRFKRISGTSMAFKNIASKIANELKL
# Sequence of PLK1 (P53350 whole entry): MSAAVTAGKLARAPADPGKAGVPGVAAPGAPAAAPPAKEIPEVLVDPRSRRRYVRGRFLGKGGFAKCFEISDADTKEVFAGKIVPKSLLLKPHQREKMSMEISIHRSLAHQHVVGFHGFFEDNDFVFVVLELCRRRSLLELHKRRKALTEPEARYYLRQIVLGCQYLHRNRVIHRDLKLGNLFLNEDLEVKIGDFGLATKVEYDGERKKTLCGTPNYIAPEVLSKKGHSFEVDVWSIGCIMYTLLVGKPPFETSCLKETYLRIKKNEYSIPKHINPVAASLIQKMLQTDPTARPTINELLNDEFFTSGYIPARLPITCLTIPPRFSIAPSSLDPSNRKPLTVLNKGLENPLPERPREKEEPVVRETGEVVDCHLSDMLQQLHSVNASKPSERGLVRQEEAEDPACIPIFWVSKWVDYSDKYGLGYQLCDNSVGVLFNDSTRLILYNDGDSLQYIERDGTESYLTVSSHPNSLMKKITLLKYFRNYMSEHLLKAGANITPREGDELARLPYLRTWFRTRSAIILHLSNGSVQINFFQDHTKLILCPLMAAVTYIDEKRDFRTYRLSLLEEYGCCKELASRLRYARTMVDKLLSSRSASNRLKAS
# Sequence of SIK3 (Q9Y2K2 whole entry): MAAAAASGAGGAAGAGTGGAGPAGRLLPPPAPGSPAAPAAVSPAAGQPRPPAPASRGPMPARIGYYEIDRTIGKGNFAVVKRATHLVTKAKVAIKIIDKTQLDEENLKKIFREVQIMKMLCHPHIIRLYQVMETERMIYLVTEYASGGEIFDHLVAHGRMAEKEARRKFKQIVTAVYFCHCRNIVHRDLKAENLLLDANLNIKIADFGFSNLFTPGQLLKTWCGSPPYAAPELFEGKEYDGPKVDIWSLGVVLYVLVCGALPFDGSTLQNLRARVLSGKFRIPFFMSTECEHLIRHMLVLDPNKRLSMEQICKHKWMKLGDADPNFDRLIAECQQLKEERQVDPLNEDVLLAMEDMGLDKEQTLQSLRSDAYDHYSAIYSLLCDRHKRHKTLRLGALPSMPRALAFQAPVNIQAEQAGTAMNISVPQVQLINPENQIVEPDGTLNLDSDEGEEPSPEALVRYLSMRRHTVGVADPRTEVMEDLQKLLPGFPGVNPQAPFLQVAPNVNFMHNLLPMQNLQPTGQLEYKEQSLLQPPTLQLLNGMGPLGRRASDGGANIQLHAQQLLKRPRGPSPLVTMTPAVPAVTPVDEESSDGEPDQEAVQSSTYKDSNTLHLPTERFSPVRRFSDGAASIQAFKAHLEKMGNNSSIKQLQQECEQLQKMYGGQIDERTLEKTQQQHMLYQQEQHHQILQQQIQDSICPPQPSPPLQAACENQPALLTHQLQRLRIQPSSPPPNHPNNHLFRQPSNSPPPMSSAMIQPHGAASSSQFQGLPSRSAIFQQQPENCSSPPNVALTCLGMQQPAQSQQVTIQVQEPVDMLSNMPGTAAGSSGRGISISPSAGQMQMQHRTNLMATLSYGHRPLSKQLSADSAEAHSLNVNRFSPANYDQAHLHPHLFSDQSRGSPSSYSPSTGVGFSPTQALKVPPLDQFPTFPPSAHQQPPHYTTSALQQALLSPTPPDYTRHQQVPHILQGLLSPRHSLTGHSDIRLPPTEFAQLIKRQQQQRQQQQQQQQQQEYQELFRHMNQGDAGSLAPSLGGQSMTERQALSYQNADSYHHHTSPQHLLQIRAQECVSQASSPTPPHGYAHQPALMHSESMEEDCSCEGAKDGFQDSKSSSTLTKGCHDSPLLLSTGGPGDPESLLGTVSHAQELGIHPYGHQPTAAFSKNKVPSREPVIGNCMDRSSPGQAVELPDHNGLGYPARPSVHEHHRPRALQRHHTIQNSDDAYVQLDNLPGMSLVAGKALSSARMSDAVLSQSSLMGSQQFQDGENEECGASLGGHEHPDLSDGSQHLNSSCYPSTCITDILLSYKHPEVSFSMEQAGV
Structure (SMILES),remaining activity at 1 µM (MAPKAP-K2) [%],remaining activity at 1 µM (PIM3) [%],remaining activity at 1 µM (SIK3) [%],remaining activity at 1 µM (TTBK2) [%],remaining activity at 1 µM (BRSK1) [%],remaining activity at 1 µM (NEK6) [%],% Activity Remaining (PHK) [%],remaining activity at 1 µM (PLK1) [%],remaining activity at 1 µM (MARK2) [%],remaining activity at 1 µM (LKB1) [%],remaining activity at 1 µM (p38 delta MAPK) [%],remaining activity at 1 µM (MAPKAP-K2; 1 µM) [%],remaining activity at 1 µM (PIM3; 1 µM) [%],remaining activity at 1 µM (SIK3; 1 µM) [%],remaining activity at 1 µM (TTBK2; 1 µM) [%],remaining activity at 1 µM (BRSK1; 1 µM) [%],remaining activity at 1 µM (NEK6; 1 µM) [%],remaining activity at 1 µM (PLK1; 1 µM) [%],remaining activity at 1 µM (MARK2; 1 µM) [%],remaining activity at 1 µM (LKB1; 1 µM) [%],other results
"COc1ccc(Cl)c(S(=O)(=O)Nc2ccc(-c3nc(OC[C@H]4CNCCO4)c4c(C)n[nH]c4n3)cc2)c1 [290-R, reference compound]",87,105,102,114,95,88,97,102,113,106,111,,,,,,,,,,
"Cc1ccc(F)c(S(=O)(=O)Nc2ccc(-c3nc(OC[C@H]4CNCCO4)c4cn[nH]c4n3)cc2)c1 [308-R, reference compound]",83,76,69,87,106,91,83,86,94,96,126,,,,,,,,,,
Cc1ccc(F)c(S(=O)(=O)Nc2ccc(-c3nc(OC[C@H]4CN(CCCCCCOCCOCCOCC(=O)N[C@H](C(=O)N5C[C@H](O)C[C@H]5C(=O)NCc5ccc(-c6scnc6C)cc5)C(C)(C)C)CCO4)c4cn[nH]c4n3)cc2)c1 [SGK3-PROTAC1],,,,,,,113,,,,,86,88,79,94,108,106,98,102,105,remaining activity at 1 µM (p38 delta MAPK; 1 µM): 103%
Cc1ccc(F)c(S(=O)(=O)Nc2ccc(-c3nc(OC[C@H]4CN(CCCCCCOCCOCCOCC(=O)N[C@H](C(=O)N5C[C@@H](O)C[C@H]5C(=O)NCc5ccc(-c6scnc6C)cc5)C(C)(C)C)CCO4)c4cn[nH]c4n3)cc2)c1 [cisSGK3-PROTAC1],,,,,,,122,,,,,92,89,117,90,106,111,98,112,112,remaining activity at 1 µM (p38 delta MAPK; 1 µM): 121%
